Measurements: patent US20240060990A1, “SPATIAL SIGNALING NETWORKS FOR MULTIPLEXED DRUG RESPONSE MEASUREMENT AND MODELING” (Georgia Tech Research Corporation, priority 2022, published 2024)
Entries after “also recorded” stand apart in the source; their conditions may differ.

Key:
p-AKT(S473) = experiment: RapMIF multiplexed immunofluorescence in PC9 cells, p-AKT; type: cell-based, human; settings: 40 nM, 48 hours vs control
Excerpt: (§1) RapMIF: The RapMIF setup consisted of an autosampler that transferred antibodies and performed washes of the sample automatically and controlled by a custom-written python code (FIGS. 10A-10D). The buffers used during the procedure are 1×PBS (D8537, Sigma), CSM, and Fluorophore bleaching solution. PBS 1× was the wash buffer for the stabilization of the cells and the tubes. CSM was the imaging buffer that helped in the annealing of antibodies with the cells. Fluorophore bleaching solution was the strip buffer used to remove staining after each cycle. The walls on the 96-well plate for the antibodies were pre-washed with 1×PBS. The well plate was covered with foil stickers to ensure a dark condition. […] Once the cells were mounted and the antibodies and buffers were ready for transfer, automatic staining was done by running Python code. […]
(§2) Cell multiplexing: Each coverslip prepared with cells was stained with 25 markers using a total of 11-12 cycles (FIG. 10C). […] To quantify the frequencies belonging to the signal that disappears after bleaching, a Fourier analysis of before and after bleaching was performed to indicate the difference in frequencies belonging to the signal.
(§3) Image intensity: From nuclei and cytosol cell masks, the mean intensity of markers in each cell area was calculated. […]

[1] = test system: HCC827-derived mouse xenografts; experiment: Tumor growth of HCC827-derived xenografts in mice; type: in vivo; settings: daily Osimertinib
[2] = test system: pancytokeratin-positive cells; experiment: Pan-cytokeratin staining of HCC827 xenograft tissue; type: in vivo, mouse; settings: 2-month treatment
Excerpt: Tissues: HCC827-derived mouse xenografts were provided by Dr. Sun Shi-yong (Emory University). […] Mice were then euthanized, and the tumor was embedded in OCT for sectioning. The OCT tissues were fixed in acetone, rehydrated, permeabilized in 0.4% Triton X-100, blocked, and ready for multiplexed experiments.

p-ERK(T202/Y204) = experiment: p-ERK immunofluorescence in HCC827 cells; type: cell-based, human; settings: 100 nM
Description: Following that, the cells were then fixed and permeabilized with 1.6% formaldehyde in 1×PBS for 10 minutes at RT and 0.5% Triton X-100 for 10 minutes at RT, respectively. The cells were then blocked using a cell staining medium (CSM) containing 0.5% BSA, and 0.02% Sodium Azide in PBS. […] HCC827 cells were stained with p-ERK overnight followed by 1-hour incubation of secondary antibodies at RT, and 10 mins DAPI staining. The cells were then imaged at 40× magnification, and the intensity levels were analyzed. […] The coverslip was mounted to an acrylic holder for multiple cycles of staining.

HCC827 cells = experiment: PPI network motif frequency in HCC827 cells; type: cell-based, human
Excerpt: Spatial Graph Construction: For each detected PPI in a cell, the corresponding 2D or 3D localization was extracted, and a node was assigned in the created graph. The node labels are assigned by creating a one-hot encoding of the corresponding PPI detected for the node. Delaunay triangulation was used to create edges connecting the nodes in the graph and therefore create a PPI spatial graph for each cell. The models are trained in a multi-instance learning framework, that is a cell label for each instance was assigned based on the cell treatment condition of a group.

PC9 cells = experiment: Cell survival: cell number on coverslip counted in ImageJ; type: cell-based, human
Description: The cell survival was measured based on the cell number on the coverslip. […] The cells were stained with p-EGFR, and β-tubulin and three ROIs were imaged for each concentration at 40×. The cell number on each ROI was counted in ImageJ following the steps: import the Channel image, make binary, convert it to masks, analyze particles, and then choose “masks” under the “show” option.

p-AKT (S473) = settings: PC9 cells; cited from earlier work
p-EGFR (Tyr1086) = experiment: p-EGFR immunofluorescence across four drug concentrations; type: cell-based, human; settings: PC9 cells, 48 hours
Description: Following that, the cells were then fixed and permeabilized with 1.6% formaldehyde in 1×PBS for 10 minutes at RT and 0.5% Triton X-100 for 10 minutes at RT, respectively (FIG. 10A). The cells were then blocked using a cell staining medium (CSM) containing […]. […] PC9 cells were stained with p-EGFR and β-tubulin overnight followed by 1-hour incubation of secondary antibodies at RT, and 15 mins DAPI staining. The cells were then imaged at 40× magnification, and the cell number was analyzed using ImageJ. […] The coverslip was mounted to an acrylic holder for multiple cycles of staining.

WNT1 = experiment: RapMIF multiplexed immunofluorescence in PC9 cells, WNT1; type: cell-based, human; settings: 40 nM, 48 hours vs control
Excerpt: as §1, §2, §3

With `C=CC(=O)Nc1cc(Nc2nccc(-c3cn(C)c4ccccc34)n2)c(OC)cc1N(C)CCN(C)C` [Osimertinib] as the compound, how does the p-AKT expression (p-AKT(S473)) read?
The p-AKT expression was “consistently downregulated; also recorded: consistent downregulation”.

What about the tumor ([1]; 5-day treatment) of the same compound?
Its tumor is “almost disappeared”.

And the “tumor as treatment continued (acquired resistance)” value ([1]; continued treatment)?
The value was “grew back and larger”.

And the xenograft growth ([1]; first week)?
Its xenograft growth is “effectively inhibited for the first week”.

And the pancytokeratin-positive cells [2]?
The pancytokeratin-positive cells was “more pancytokeratin-positive cells”.

And the p-ERK level (p-ERK(T202/Y204); 6-hour treatment)?
The p-ERK level was “suppressed initially”.

And the p-ERK level (p-ERK(T202/Y204); 12-hour treatment)?
The p-ERK level was “increased”.

And the “motif 9 (p-ERK/c-Myc & p-ERK/c-Myc) autoregulation” value (HCC827 cells; 5 PPI network)?
The value was “Increased autoregulation”.

And the “three-node motif 17 (Tead1/Yap&Tead1/Yap& p-ERK/c-Myc)” value (HCC827 cells; 5 PPI network)?
Its value is “more interactions”.

And the “autoregulation of cyclin D1/CDK2 in motif 0 and motif 45” value (HCC827 cells; 9 PPIs dataset)?
The value was “inhibited”.

And the “interaction between sox2/oct4 and Cyclin D1/CDK4 (motif 2, motif 47)” value (HCC827 cells; 9 PPIs dataset)?
The value was “downregulation”.

What about the “cell viability, higher vs lower drug concentrations” value (PC9 cells; 48-hour treatment) of the same compound?
The value was “further decreased the cell viability”.

And the “number of cells adhering to the coverslips” value (PC9 cells; 48-hour treatment, 0, 20, 40, 60 nM)?
Its value is “decreased as the drug concentration has increased; also recorded: reduced the number of adherent PC9 cells compared to untreated ones”.

What about the “p-AKT (S473) level” value (p-AKT (S473)) of the same compound?
The value was “effectively inhibit the p-AKT (S473) level”.

What about the “p-EGFR expression, 60 nM vs 40 nM” value (p-EGFR (Tyr1086)) of the same compound?
The value was “relatively higher expression under 60 nM than 40 nM”.

And the p-EGFR expression (p-EGFR (Tyr1086); 0 to 20 nM to 40 nM, normalized to β-tubulin)?
The p-EGFR expression was “decreased the p-EGFR expression as the drug concentration increased from 0 to 20 nM to 40 nM”.

What about the WNT1 signaling (WNT1) of the same compound?
The WNT1 signaling was “increased the WNT1 signaling”.
